*: point of attachment. CH2F = FC*
Legend:
Dispersibility in water = format: physicochemical
[1] = system: 769-P cells (endolysosomal compartment); assay: LysoTracker red fluorescence, 769-P; format: cell-based, human; conditions: 20 μM; 48 h; 75 nM LysoTracker red, 1 h, Ex/Em 570/600
Experimental: First, 1.5 × 10^4 769-P or A498 cells were seeded in 96-well plates in full medium. The day after the cells were treated with the peptides for 3 consecutive days to establish 24, 48, and 72 h groups of treatment. LysoTracker Red fluorescence intensity was measured via microplate reader following the protocols described in [75] and applying Ex/Em = 570/600. The cells were incubated with 75 nM of LysoTracker red for 1 h. […]
Figure S6. The effect of the peptide inhibitors on human 769‐P and A498 renal cancer cell on
lysosomes integrity. (a) 769‐P and (b) A498 cells were treated with increasing doses of Ac‐PLVE‐FMK
(red bars) and Ac‐VLPE‐FMK (blue bars) (2.5–250 μM). NR uptake was measured after 24, 48, and 72
h via MTT assay. (c) LysoTracker red evaluation in 769‐P and (d) A498 cells after 24, 48, and 72 h with
the inhibitors (20 μM). Data represent the mean (± S.D.) of at least three independent experiments,
each performed in triplicate. […]

SNAIL1 in 769-P cells = assay: SNAIL1 protein expression (western blot), 769-P; format: cell-based, human; conditions: 72 h
Experimental: (§1) These properties could be the result of the modulation of the effectors controlling EMT, as previously shown in other tumor models. To test this hypothesis, the cells were treated with the inhibitors for 24, 48, and 72 h by changing the media every day, and they were tested for E-cadherin and SNAIL1 expression (Figure 6; detail information of western blots can be seen in Supplementary Figure S7). Figure 6 Effects of the peptides on E-cadherin and SNAIL1 protein expression: (a,b) protein expression of E-cadherin and SNAIL1 in 769-P and (c,d) A498 cells after 24, 48, and 72 h of treatment with the peptides. Data are represented as mean ± SD of at least three replicates. Significance was calculated through one-way ANOVA, followed by Dunnet’s test. Cells were seeded in RPMI containing 10% FBS and cultured for 24 h. Next, 30 µM of inhibitors were added to the culture medium and incubated for 24, 48, and 72 h. Control cells were treated with 0.01% DMSO. At all time points the samples were lysed in 50 mM Tri-HCl (pH 8.0), 100 mM NaCl, 0.5% NP-40, 1% Triton X-100, 1× protease inhibitor cocktail (ThermoFisher, Waltham, MA, USA). The 50 µg of protein lysates were separated by electrophoresis on a 12% SDS-PAGE gel and transferred to the PFDF membranes. […] After an additional wash (three times with PBS), reactive bands were detected by chemiluminescence (Bio-Rad, Irvine, CA, USA). […]

SNAIL1 in A498 cells = assay: SNAIL1 protein expression (western blot), A498; format: cell-based, human; conditions: 72 h
Experimental: as §1

[2] = system: 769-P cells (proteolytic activity); assay: Cell proteolytic activity towards Ac-PLVQ-AMC, 769-P; format: cell-based, human; conditions: 30 min peptide, then 10 min Ac-PLVQ-AMC; fluorescence microscopy and fluorimetric analysis
Experimental: To evaluate the inhibitory properties of the peptides directly on the human renal cancer cells, we firstly assessed the impact of Ac-PLVE-FMK and Ac-VLPE-FMK on the cell viability of 769-P and A498 cells to determine the working concentrations for further experiments. […] Further experiments were performed using a concentration of 20 μM. To understand if the peptides could affect the activity of caspase proteases, we tested their effect on cell viability in combination with the chemotherapeutic paclitaxel (PXT) in both the cell lines. […] Next, we evaluated the effect of the peptides on renal cancer cell proteolytic activity against the fluorogenic probe Ac-PLVQ-AMC. In this case, 769-p and A498 cells were treated for 30 min with Ac-PLVE-FMK or Ac-VLPE-FMK and were then exposed for 10 min to the substrate Ac-PLVQ-AMC prior fluorescence microscopy analysis (Figure 3c,d).
Figure 3 The effect of the peptide inhibitors on human 769-P and A498 renal cancer cell proliferation and proteolytic activity. […] Cell proliferation was measured after 24, 48, and 72 h via MTT (3-(4,5-dimethylthiazol-2-yl)-2,5-diphenyltetrazolium bromide) assay. […] (c) Fluorescence microscopy evaluation and quantification of the cell proteolytic activity in 769-P and (d) A498 cells towards the fluorogenic substrate Ac-PLVQ-AMC in the absence or presence of Ac-PLVE-FMK and Ac-VLPE-FMK. […]

Dispersibility in water (Dispersibility in water)	Substance	LysoTracker red fluorescence [1]	SNAIL1 protein expression (SNAIL1 in 769-P cells)	SNAIL1 protein expression (SNAIL1 in A498 cells)	Inhibition of probe degradation (cell proteolytic activity) [2]
easily dispersed in water	Ac-PLVE-CH2F [Ac-PLVE-FMK]	slightly increasing	increased significantly at 72 h only in the case of 769P cells treated with AC-PLVE-FMK	dropped to values more similar to the control	significantly inhibited the probe degradation
easily dispersed in water	Ac-VLPE-CH2F [Ac-VLPE-FMK]	slightly increasing	dropped to values more similar to the control	dropped to values more similar to the control	significantly inhibited the probe degradation

Reference: publication PMC7281206, “Cysteine Cathepsins Inhibition Affects Their Expression and Human Renal Cancer Cell Phenotype” (Cancers, 2020)
